In assay [1] the test system is α-tubulin acetylation in the presence of ITSA1. The experiment in a line: ITSA1+AcTubulin assay: suppression of induced acetylation by ITSA1. The assay is classed as cell-based, human. The conditions noted are these: ITSA1 50 μM, A549 cells. The method, then:
A549 cells were seeded at a density of 4,000 cells/50 μl in DMEM+ in white tissue culture-treated 384-well plates (Nalge Nunc) using a Multidrop 384 liquid dispenser (Labsystems). Library small molecules were pinned twice (100-150 nl/pin) from ˜1 mM stock solutions (DMSO) and incubated for 18 hours. For the ITSA1+AcTubulin assay, ITSA1 (50 μM) was added four hours after pin-transfer of library molecules. Media was aspirated with a 16-channel wand. […] Plates were read on an Analyst plate reader (LJL Biosystems) with an integration time of 0.1 seconds.
Bromodeoxyuridine labeling and fluorescence-activated cell sorting (FACS) were performed as described (K. M. Koeller et al., Chemistry & Biology, 10 (5) (2003) pp. 397-410). […]

Assay [2] relates to HDAC6. In words: acetylated α-tubulin and HDAC6 immunofluorescence in control (Neo) and HDAC6-overexpressing fibroblasts. It counts as cell-based, mouse. The conditions noted are these: tubacin 2 μM, 4 h.
Procedure: All cells were cultured at 37° C. in a humidified incubator supplemented with 5% carbon dioxide. […] Mouse NIH-3T3 wild-type (Neo), HDAC6, HDAC6 double mutant, and HDAC1 overexpressing cells (gift from C. Hubbert, Duke University) were cultured as described (C. Hubbert et al., Nature 417, 455 (2002)1).
Detection of acetylated α-tubulin and acetylated histones by immunofluorescence was performed as described in Example 6 above. […] HDAC6 was detected using a rabbit polyclonal antibody (1:250-1:750; C.M.G., unpublished data) under the conditions used to detect acetylated α-tubulin (See Example 6 above). […] Images for these experiments were collected on a Zeiss LSM510 confocal scanning laser microscope at the appropriate wavelengths using the accompanying software and processed with Adobe Photoshop.
The subject of assay [3] is α-tubulin. In words: total and tyrosinated α-tubulin levels in cells. The assay is classed as cell-based. Particulars: tubacin 2 μM, 4 h. The method, then:
Detection of acetylated α-tubulin and acetylated histones by immunofluorescence was performed as described in Example 6 above. For determining microtubule stability, A549 cells were treated as indicated, fixed in glutaraldehyde, and stained for acetylated α-tubulin and total α-tubulin in antibody dilution buffer (ADB, Tris-buffered saline (TBS), 0.15 M NaCl, 0.02 M Tris-Cl, pH 7.4, with 2% bovine serum albumin and 0.1% Triton-X 100). For cold-depolymerization, cells were incubated at 4° C. or 37° C. for an additional 90 minutes before fixation. […] For co-localization experiments, biotubacin (50 μM) treated A549 cells were fixed in 3.7% formaldehyde in TBS and processed as for detecting acetylated α-tubulin (See Example 6 above) with biotubacin detected using streptavidin-TR (1:500). HDAC6 was detected using a rabbit polyclonal antibody (1:250-1:750; C.M.G., unpublished data) under the conditions used to detect acetylated α-tubulin (See Example 6 above). Filamentous actin in HT-1080 cells was detected using TR-conjugated phalloidin (1 μg/mL), and depolymerized actin using FITC-conjugated deoxyribonuclease (10 μg/mL), following fixation in 3.7% formaldehyde in TBS. p58 (1:100) in NIH-3T3 cells was detected after fixation in 3.7% formaldehyde in TBS. […]

SMILES strings stand for the structures. “Also recorded” adds a separate entry of the source.

On to `O=C(CCCCCCC(=O)Nc1ccc([C@@H]2OC(c3ccc(CO)cc3)C[C@H](CSc3nc(-c4ccccc4)c(-c4ccccc4)o3)O2)cc1)NO` (some centres unmarked) [tubacin], for which the “suppression of the induced acetylation by ITSA1” value in assay [1] was “partially suppressed by ITSA1”. The “co-localization of HDAC6 with acetylated microtubules” value in assay [2] (NIH-3T3 (Neo)) was “Increased co-localization of HDAC6 with acetylated α-tubulin; also recorded: caused an increase in the co-localization of HDAC6 along acetylated microtubules”. For the same compound, the “α-tubulin acetylation in control (Neo) versus HDAC6-overexpressing NIH-3T3 cells” value in assay [2] was “Decreased α-tubulin acetylation upon tubacin (2 μM) treatment (4 h) of HDAC6 overexpressing compared to control (Neo) NIH-3T3 cells; also recorded: induced an increase in α-tubulin acetylation; also recorded: decreased tubucin-induced α-tubulin acetylation”. Moreover, in assay [3], the “level of total α-tubulin” value is “No effect of tubacin (2 μM) treatment (4 h) on the levels of α-tubulin; also recorded: did not affect the level of total α-tubulin or the level of α-tubulin containing a carboxy-terminal tyrosine” and the “level of tyrosinated α-tubulin” value is listed as “No effect of tubacin (2 μM) treatment (4 h) on the levels of tyrosinated tubulin; also recorded: did not affect the level of total α-tubulin or the level of α-tubulin containing a carboxy-terminal tyrosine”.

(Values after US8178579B2, “Dioxanes and uses thereof” (President and Fellows of Harvard College, priority 2001, dated 2012).)
